PubChem BioAssay (NCI)
Several values for one entry are separate records, joined by “and”; a condition that tells them apart may be missing. Equal values may be shown once.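 Following 48 hours of exposure in 96-well plates, responses at five concentrations were used to interpolate endpoints linearly. GI50: concentration for 50% inhibition of growth. Definition used: TGI = concentration required for complete inhibition of growth.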 Where a SMILES comes first, the peptide text is derived from it. [ ]: non-standard residue; d: D form. The star is where a group is joined. ξ: configuration not given here. X16 = COC1=CC(=O)N(C(=O)C(O*)C(C)C)C1Cc1ccccc1; ξNMe2Val = CC(C)C(C(=O)*)N(C)C; NMeV = CN[CH](C(=O)O)C(C)C

Experiments:
Assay in all cases: NCI tumour cell line growth inhibition, 48 h
U251 CNS = tested on: U251 CNS
ACHN renal = tested on: ACHN renal
HCC-2998 colon = tested on: HCC-2998 colon
HT29 colon = tested on: HT29 colon
HCT-116 colon = tested on: HCT-116 colon
COLO 205 colon = tested on: COLO 205 colon
PC-3 prostate = tested on: PC-3 prostate
T-47D breast = tested on: T-47D breast
TK-10 renal = tested on: TK-10 renal
SN12C renal = tested on: SN12C renal
EKVX NSCLC = tested on: EKVX NSCLC
HOP-92 NSCLC = tested on: HOP-92 NSCLC

| Compound | TGI (U251 CNS) | TGI (ACHN renal) | TGI (HCC-2998 colon) | TGI (HT29 colon) | TGI (HCT-116 colon) | TGI (COLO 205 colon) | TGI (PC-3 prostate) | TGI (T-47D breast) | TGI (TK-10 renal) | TGI (SN12C renal) | TGI (EKVX NSCLC) | TGI (HOP-92 NSCLC) | GI50 (U251 CNS) | GI50 (EKVX NSCLC) | GI50 (HOP-92 NSCLC) | GI50 (HT29 colon) | GI50 (HCT-116 colon) | GI50 (COLO 205 colon) | GI50 (SN12C renal) | GI50 (HCC-2998 colon) |
| --- | --- | --- | --- | --- | --- | --- | --- | --- | --- | --- | --- | --- | --- | --- | --- | --- | --- | --- | --- | --- |
| COc1c2cc(C(C)(C)C)cc1CSCc1cc(C(C)(C)C)cc(c1OC)CCCCC2 | > 50 µM | > 50 µM | > 50 µM | > 50 µM | > 50 µM | > 50 µM | > 50 µM | > 50 µM | > 50 µM | > 50 µM |  |  |  |  |  |  |  |  |  |  |
| O=S(=O)(O)c1ccc(NN(c2c(O)ccc3ccccc23)S(=O)(=O)O)cc1 | > 100 µM | > 100 µM | > 100 µM | > 100 µM | > 100 µM | > 100 µM | > 100 µM | > 100 µM | > 100 µM | > 100 µM | > 100 µM |  |  |  |  |  |  |  |  |  |
| CO/C(=N\N=C(/C)C(F)(F)F)c1ccncc1 | > 100 µM |  |  | > 100 µM | > 100 µM | > 100 µM | > 100 µM | > 100 µM |  | > 100 µM |  | > 100 µM |  |  |  |  |  |  |  |  |
| Oc1c(Cl)c2nccnc2c2ccccc12 | > 100 µM | > 100 µM | > 100 µM | > 100 µM | > 100 µM | > 100 µM |  |  | > 100 µM | > 100 µM | > 100 µM | > 100 µM |  |  |  |  |  |  |  |  |
| On1c(-c2ccccc2)c(-c2c(-c3ccccc3)n(O)c3ccccc23)c2ccccc21 | > 100 µM | 87.5 µM |  | > 100 µM | > 100 µM |  |  |  | > 100 µM | > 100 µM |  |  |  |  |  |  |  |  |  |  |
| O=c1c2cc([N+](=O)[O-])ccc2n2n1Cc1ccccc1CC2 | > 100 µM | > 100 µM | > 100 µM | > 100 µM | > 100 µM | > 100 µM | > 100 µM |  | > 100 µM | > 100 µM | 52.5 µM |  |  |  |  |  |  |  |  |  |
| Oc1ccc(-c2cc(-c3c(O)cc(O)cc3O)on2)cc1 | > 100 µM | > 100 µM | > 100 µM | > 100 µM | > 100 µM |  | > 100 µM | > 100 µM | > 100 µM | > 100 µM | > 100 µM |  |  |  |  |  |  |  |  |  |
| Cc1cc(Br)c(N2C3=C(CC4=C2CCCC4=O)C(=O)CCC3)c(Br)c1 | > 100 µM | > 100 µM | > 100 µM | > 100 µM |  |  | > 100 µM |  | > 100 µM | > 100 µM | > 100 µM | 94.3 µM |  |  |  |  |  |  |  |  |
| c1cnc2c(c1)-n1cccc1C1(CCOCC1)NN2 | > 100 µM | > 100 µM | > 100 µM | > 100 µM | > 100 µM | > 100 µM |  |  | > 100 µM | > 100 µM | > 100 µM | > 100 µM |  |  |  |  |  |  |  |  |
| C=C1CC2CC[C@@]34C[C@@H]5O[C@@H]6C(O[C@H]7CC[C@H](CC(=O)OC8[C@@H](C)C9OC%10C[C@]%11(C[C@@H]%12O[C@@]%13(C[C@@H](C)[C@@H]%12O%11)C[C@H](C)[C@@H]%11OC%12CC(C(O)CO)OC%12C[C@@H]%11O%13)OC%10CC9O[C@H]8C[C@H]8O[C@@H](CC[C@@H]1O2)C[C@@H](C)C8=C)O[C@@H]7[C@@H]6O3)C5O4 (some centres undefined) | 0.000191 µM |  | 0.00865 µM | 0.00784 µM and 0.00321 µM | 0.00327 µM |  |  |  |  | > 1.48 µM | > 1.48 µM | > 1.48 µM | < 0.000148 µM | < 0.000148 µM | < 0.000148 µM | < 0.000148 µM | < 0.000148 µM | < 0.000148 µM | < 0.000148 µM |  |
| COc1ccc(-n2c(CCCC(=O)O)nc3c2C(=O)c2ccccc2C3=O)cc1 | > 100 µM | > 100 µM | > 100 µM |  | > 100 µM | > 100 µM |  | > 100 µM | > 100 µM | > 100 µM | > 100 µM | > 100 µM |  |  |  |  |  |  |  |  |
| CC(C)(C)C1CCC2c3c([nH]c4ccccc34)C3C(=O)N(c4cc(Br)cc(Br)c4)C(=O)C3C2C1 (centres undefined) | 30.3 µM | > 100 µM | 24.7 µM | > 100 µM | 23.1 µM | > 100 µM | 33.2 µM |  | 59.2 µM | 29.1 µM | 59.4 µM | 8.82 µM |  |  |  |  |  |  |  |  |
| CSc1n[nH]c(N)c1C(=O)Nc1ccc(Cl)cc1 | > 100 µM |  | > 100 µM | > 100 µM | 56 µM | > 100 µM | > 100 µM | > 100 µM | > 100 µM | > 100 µM | > 100 µM |  |  |  |  |  |  |  |  |  |
| O=C(NCCNCCO)N/N=C/c1cccc([N+](=O)[O-])c1 | > 100 µM | > 100 µM |  | > 100 µM | > 100 µM | > 100 µM |  |  | > 100 µM | > 100 µM |  | > 100 µM |  |  |  |  |  |  |  |  |
| Cc1c(C)c(C)c(-n2c(=O)n(C)c(=O)n2C(C)(C)C)c(C)c1C | > 100 µM | > 100 µM | > 100 µM |  | > 100 µM | > 100 µM | > 100 µM | > 100 µM | > 100 µM | > 100 µM |  | > 100 µM |  |  |  |  |  |  |  |  |
| COc1ccc(C2SCC(=O)N2N=C2NC(=O)CC(=O)N2)cc1 (centres undefined) | > 100 µM | > 100 µM | > 100 µM | > 100 µM | > 100 µM | > 100 µM | > 100 µM | > 100 µM | > 100 µM | > 100 µM |  | > 100 µM |  |  |  |  |  |  |  |  |
| CCOC(=O)c1nc2c3c(ncn2n1)Oc1c(c(-c2ccccc2)nn1-c1ccccc1)C3c1ccc(OC)c(OC)c1 (centres undefined) | > 100 µM | > 100 µM | > 100 µM | > 100 µM | > 100 µM | > 100 µM | > 100 µM |  | > 100 µM | > 100 µM | > 100 µM | > 100 µM |  |  |  |  |  |  |  |  |
| COc1c(C2(c3ccc(F)cc3)SCCCS2)c(=O)c1=O | > 100 µM | > 100 µM | > 100 µM | > 100 µM | > 100 µM | > 100 µM | > 100 µM |  | > 100 µM | > 100 µM | > 100 µM | > 100 µM |  |  |  |  |  |  |  |  |
| COC1=CC(=O)N(C(=O)C(OC(=O)C2CCCN2C(=O)C2CCCN2C(=O)C(C(C)C)N(C)C(=O)C(NC(=O)C(C(C)C)N(C)C)C(C)C)C(C)C)C1Cc1ccccc1 (centres undefined) (ξNMe2Val-V[NMeV]PP-X16; configuration not given here) | 0.0109 µM |  |  | 0.0066 µM |  | 0.00838 µM and 0.0415 µM |  |  |  |  | 3.95 µM |  | < 0.0004 µM |  | 0.000954 µM |  |  | < 0.0004 µM | < 0.0004 µM | < 0.0004 µM |
| O=C(CCN1CCCCC1CCO)Nc1ccc2c(c1)C(=O)c1ccc(NC(=O)CCN3CCCCC3CCO)cc1C2=O (centres undefined) | 14.9 µM | 24.9 µM | > 100 µM | 20.6 µM | 14.7 µM | 10.4 µM |  |  | 14.6 µM | 16 µM | 27 µM | 31 µM |  |  |  |  |  |  |  |  |
